Experimental data as given in patent US6375672B1, “Method for controlling the chemical and heat induced responses of collagenous materials” (Board of Trustees of Michigan State University, priority 1999, dated 2002).

Test system: rabbit patellar tendon specimen
Assay: post-denaturation tension test (stiffness) of heat-contracted tendon specimens treated with cross-linking agent
Parameters: species or system New Zealand rabbit
Conditions: FIG. 7; for stiffness increase when compared to a control without the cross-linking: then 0.1% glutaraldehyde for 15 minutes
Experimental: The achieve the above objectives, the present invention provides an in vitro testing system for developing procedures for treating joint instability problems and loose skin problems. In particular, the testing system performs a tensile test, which is a test wherein a constant rate of elongation is applied on the specimen and the resultant load is measured by a load cell; a viscoelasticity test, which is a test to determine the viscoelastic properties of the specimen; and, calculates stiffness which is the slope of elongation versus load graph. The testing system 110 is illustrated in FIG. 4 and consists of a hydrothermy cabin 120 that is attached to a universal testing machine 130, which is used to perform isothermal and isotonic heating of specimens. The hydrothermy cabin 120 provides a chamber which allows fluid to be circulated around all surfaces of specimen 123 held in between lower grip 124 and upper grip 125. Specimen 123 is secured to lower grip 124 using a fixture which is designed to keep specimen 123 at an angle to mimic anatomical loading while compensating for the offset created by the angle so as to ensure a straight line of loading. Specimen 123 is secured to upper grip 125 by a wedge-shaped fixture which is composed of two universal joints to give rotational freedom to specimen 123 to ensure that a purely uniaxial stress is created on specimen 123. The denaturation of the collagen in specimen 123 is produced by providing to hydrothermy cabin 120 high temperature saline solution 150 contained in reservoir 151 by means of high temperature saline solution supply line 152. […] The materials testing machine 130 performs a tensile test wherein a constant rate of eleongation is applied to specimen 123 and the resultant load is measured by a load cell (not shown); a viscoelasticity test wherein a constant load is applied on specimen 123 and the resultant elongation as a function of time is measured (creep test) or a constant elongation is imposed and the resulting load is measured (stress relaxation test) as a function of time. […]

O=CCCCC=O [glutaraldehyde]
stiffness of the specimen (15 minutes of 0.1% glutaraldehyde following heat treatment of either 75° C. or 80° C.): increased
stiffness increase when compared to a control without the cross-linking (heat treatment 75° C., 0.5 MPa load): more than 220%
stiffness increase when compared to a control without the cross-linking (heat treatment 80° C., 0.6 MPa load): more than 130%
